Source: US9309200B2, “Benzazepine derivatives, pharmaceutical compositions containing them, and their use in therapy” (AbbVie Deutschland GmbH & Co. KG, priority 2011, dated 2016)

How the values were obtained:
[1] = target: T1, human GlyT1c transporter (Homo sapiens, UniProt P48067); test: Radioligand binding assay using recombinant CHO cell membranes expressing human GlyT1; settings: read-out: radioligand binding Kiapp
T1 construct: expressed in transfected cells; host or cells: recombinant CHO cells (membranes); the uptake assay names the line hGlyT1c_5_CHO
T1 sequence (P48067 1-706): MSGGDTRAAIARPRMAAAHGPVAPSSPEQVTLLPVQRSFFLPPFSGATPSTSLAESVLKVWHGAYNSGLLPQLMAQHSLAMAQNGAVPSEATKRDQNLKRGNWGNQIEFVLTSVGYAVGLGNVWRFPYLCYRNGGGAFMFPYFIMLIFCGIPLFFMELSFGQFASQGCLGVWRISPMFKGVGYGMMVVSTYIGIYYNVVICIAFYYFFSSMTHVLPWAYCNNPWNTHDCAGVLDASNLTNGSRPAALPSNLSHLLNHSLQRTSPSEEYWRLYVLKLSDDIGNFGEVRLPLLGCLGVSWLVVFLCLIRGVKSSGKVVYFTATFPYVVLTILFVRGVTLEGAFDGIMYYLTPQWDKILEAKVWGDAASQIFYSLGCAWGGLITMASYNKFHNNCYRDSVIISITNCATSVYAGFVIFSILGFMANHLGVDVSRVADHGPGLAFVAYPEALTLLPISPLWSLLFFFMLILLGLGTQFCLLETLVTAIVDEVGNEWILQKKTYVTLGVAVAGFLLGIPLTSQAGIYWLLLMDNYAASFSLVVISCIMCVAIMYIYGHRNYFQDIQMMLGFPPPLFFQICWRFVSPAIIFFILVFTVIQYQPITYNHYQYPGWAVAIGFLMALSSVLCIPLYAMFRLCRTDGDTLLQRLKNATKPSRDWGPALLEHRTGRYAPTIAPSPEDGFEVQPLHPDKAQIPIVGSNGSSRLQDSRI
Protocol: 2. Radioligand Binding Assays Using Recombinant CHO Cell Membranes Expressing Human GlyT1:
Radioligand binding to human GlyT1c transporter-expressing membranes was determined as described in Mezler et al., Molecular Pharmacology 74:1705-1715, 2008.

[2] = Metabolic stability in human liver microsomes (microsomal clearance); type: in vitro ADME; settings: human liver microsomes 0.25 mg protein/ml, 0.5 μM test substance, NADPH 1.0 mM, pH 7.4, 37° C.
Protocol: The metabolic stability of a compound can be measured for example by incubating a solution of this compound with liver microsomes from particular species (for example rat, dog or human) and determining the half-life of the compound under these conditions (R S Obach, Curr Opin Drug Discov Devel. 2001, 4, 36-44). It is possible in this connection to conclude from an observed longer half-life that the metabolic stability of the compound is improved. The stability in the presence of human liver microsomes is of particular interest because it makes it possible to predict the metabolic degradation of the compound in the human liver. Compounds with increased metabolic stability (measured in the liver microsome test) are therefore probably also degraded more slowly in the liver. The slower metabolic degradation in the liver may lead to higher and/or longer-lasting concentrations (active levels) of the compound in the body, so that the elimination half-life of the compounds of the invention is increased. Increased and/or longer-lasting active levels may lead to a better activity of the compound in therapeutic treatment. In addition, an improved metabolic stability may lead to an increased bioavailability after oral administration, because the compound is subject, after absorption in the intestine, to less metabolic degradation in the liver (so-called first pass effect). An increased oral bioavailability may, owing to an increased concentration (active level) of the compound, lead to a better activity of the compound after oral administration.
Metabolic stability was determined as follows:
0.5 μM test substance was preincubated together with human liver microsomes (0.25 mg of microsomal protein/ml) in 0.05 M potassium phosphate buffer of pH 7.4 in microtiter plates at 37° C. for 5 min. The reaction was started by adding NADPH (1.0 mM). After 0, 5, 10, 15, 20 and 30 min, 65 μl aliquots were removed, and the reaction was immediately stopped and cooled with twice the amount of ethanol. The samples were frozen until analyzed. The remaining concentration of undegraded test substance was determined by LC MSMS. The half-life (T½) was determined from the gradient of the signal of test substance/unit time plot, allowing to calculate the half-life of the test substance, assuming first order kinetics, from the decrease in the concentration of the compound with time. The microsomal clearance (mCl) was calculated from mCl=ln 2/T½/(content of microsomal protein in mg/ml)×1000 (modified from references: Di, The Society for Biomolecular Screening, 2003, 453-462; Obach, DMD, 1999 vol 27. N 11, 1350-1359).

Row | SMILES | Ki [1] [nM] | human mCl [2]
1 | Cn1cc(S(=O)(=O)NCc2ccc3c(c2)C(Cc2ccccc2)NCCC3)cn1 (centres unmarked) [Example 34, 1-Methyl-1H-pyrazole-4-sulfonic acid (1-benzyl-2,3,4,5-tetra-hydro-1H-benzo[c]azepin-8-ylmethyl)-amide] | ≤ 10 | 
2 | Cn1cnc(S(=O)(=O)NCc2ccc3c(c2)C(Cc2ccccc2)NCCC3)c1 (centres unmarked) [Example 35, 1-Methyl-1H-imidazole-4-sulfonic acid (1-benzyl-2,3,4,5-tetra-hydro-1H-benzo[c]azepin-8-ylmethyl)-amide] | ≤ 10 | 
3 | CN(Cc1ccc2c(c1)C(Cc1ccccc1)NCCC2)S(=O)(=O)c1cn(C)cn1 (centres unmarked) [Example 36, 1-Methyl-1H-imidazole-4-sulfonic acid (1-benzyl-2,3,4,5-tetrahydro-1H-benzo[c]azepin-8-ylmethyl)-methyl-amide] | ≤ 100 | 
4 | CCCN1CCCc2ccc(CNS(=O)(=O)c3cn(C)cn3)cc2C1Cc1ccccc1 (centres unmarked) [Example 37, 1-Methyl-1H-imidazole-4-sulfonic acid (1-benzyl-2-propyl-2,3,4,5-tetrahydro-1H-benzo[c]azepin-8-ylmethyl)-amide] | ≤ 10 | 
5 | CN1CCCc2ccc(CNS(=O)(=O)c3cn(C)cn3)cc2C1Cc1ccccc1 (centres unmarked) [Example 38, 1-Methyl-1H-imidazole-4-sulfonic acid (1-benzyl-2-methyl-2,3,4,5-tetrahydro-1H-benzo[c]azepin-8-ylmethyl)-amide] | ≤ 100 | 
6 | CCN1CCCc2ccc(CNS(=O)(=O)c3cn(C)cn3)cc2C1Cc1ccccc1 (centres unmarked) [Example 39, 1-Methyl-1H-imidazole-4-sulfonic acid (1-benzyl-2-ethyl-2,3,4,5-tetrahydro-1H-benzo[c]azepin-8-ylmethyl)-amide] | ≤ 100 | 
7 | CCN(Cc1ccc2c(c1)C(Cc1ccccc1)NCCC2)S(=O)(=O)c1cn(C)cn1 (centres unmarked) [Example 40, 1-Methyl-1H-imidazole-4-sulfonic acid (1-benzyl-2,3,4,5-tetrahydro-1H-benzo[c]azepin-8-ylmethyl)-ethyl-amide] | ≤ 100 | 
8 | Cn1cnc(S(=O)(=O)NCc2cc3c(cc2F)CCCNC3Cc2ccccc2)c1 (centres unmarked) [Example 41, 1-Methyl-1H-imidazole-4-sulfonic acid (1-benzyl-7-fluoro-2,3,4,5-tetrahydro-1H-benzo[c]azepin-8-ylmethyl)-amide] | ≤ 10 | 
9 | CCS(=O)(=O)NCc1cc2c(cc1F)CCCNC2Cc1ccccc1.O=C(O)C(F)(F)F (centres unmarked) [Example 42, Ethanesulfonic acid (1-benzyl-7-fluoro-2,3,4,5-tetrahydro-1H-benzo[c]azepin-8-ylmethyl)-amide; compound with trifluoro-acetic acid] | ≤ 1000 | ≦50 μl/min/mg
10 | CCS(=O)(=O)NCCOc1cc2c(cc1F)CCCNC2Cc1ccccc1 (centres unmarked) [Example 43, Ethanesulfonic acid [2-(1-benzyl-7-fluoro-2,3,4,5-tetrahydro-1H-benzo-[c]azepin-8-yloxy)-ethyl]-amide] | ≤ 1000 | ≦50 μl/min/mg
11 | O=C(O)/C=C/C(=O)O.O=S(=O)(CC1CC1)NCc1cc2c(cc1F)CCCNC2Cc1ccccc1 (centres unmarked) [Example 44, N-(1-Benzyl-7-fluoro-2,3,4,5-tetrahydro-1H-benzo[c]azepin-8-ylmethyl)-C-cyclopropyl-methanesulfonamide; compound with (E)-but-2-enedioic acid] | ≤ 100 | ≦50 μl/min/mg
12 | Cn1cnc(S(=O)(=O)NCCOc2cc3c(cc2F)CCCNC3Cc2ccccc2)c1 (centres unmarked) [Example 45, 1-Methyl-1H-imidazole-4-sulfonic acid [2-(1-benzyl-7-fluoro-2,3,4,5-tetrahydro-1H-benzo[c]azepin-8-yloxy)-ethyl]amide] | ≤ 100 | ≦50 μl/min/mg
13 | O=S(=O)(CC1CC1)NCCOc1cc2c(cc1F)CCCNC2Cc1ccccc1 (centres unmarked) [Example 46, N-[2-(1-Benzyl-7-fluoro-2,3,4,5-tetrahydro-1H-benzo[c]azepin-8-yloxy)-ethyl]-C-cyclopropyl-methanesulfonamide] | ≤ 100 | ≦50 μl/min/mg
14 | Cn1cnc(S(=O)(=O)NCc2ccc3c(c2)C(C(C)(C)c2ccccc2)NCCO3)c1 (centres unmarked) [Example 47, 1-Methyl-1H-imidazole-4-sulfonic acid [5-(1-methyl-1-phenyl-ethyl)-2,3,4,5-tetrahydro-benzo[f][1,4]oxazepin-7-ylmethyl]-amide] | ≤ 10000 | 
15 | Cn1cnc(S(=O)(=O)NCCOc2ccc3c(c2)C(Cc2ccccc2)NCCO3)c1 (centres unmarked) [Example 48, 1-Methyl-1H-imidazole-4-sulfonic acid [2-(5-benzyl-2,3,4,5-tetrahydro-benzo[f][1,4]oxazepin-7-yloxy)-ethyl]-amide] | ≤ 100 | ≦50 μl/min/mg
16 | CCS(=O)(=O)NCCOc1ccc2c(c1)C(Cc1ccccc1)NCCO2 (centres unmarked) [Example 50, Ethanesulfonic acid [2-(5-benzyl-2,3,4,5-tetrahydro-benzo[f][1,4]oxazepin-7-yloxy)-ethyl]-amide] | ≤ 10000 | ≦50 μl/min/mg
17 | CCCS(=O)(=O)NCCOc1ccc2c(c1)C(Cc1ccccc1)NCCO2 (centres unmarked) [Example 51, Propane-1-sulfonic acid [2-(5-benzyl-2,3,4,5-tetrahydro-benzo[f][1,4]oxazepin-7-yloxy)-ethyl]-amide] | ≤ 1000 | ≦100 μl/min/mg
18 | O=S(=O)(NCCOc1ccc2c(c1)C(Cc1ccccc1)NCCO2)C1CCC1 (centres unmarked) [Example 52, Cyclobutanesulfonic acid [2-(5-benzyl-2,3,4,5-tetrahydro-benzo[f][1,4]oxazepin-7-yloxy)-ethyl]-amide] | ≤ 1000 | ≦100 μl/min/mg
19 | O=S(=O)(CC1CC1)NCCOc1ccc2c(c1)C(Cc1ccccc1)NCCO2 (centres unmarked) [Example 53, N-[2-(5-Benzyl-2,3,4,5-tetrahydro-benzo[f][1,4]oxazepin-7-yloxy)-ethyl]-C-cyclopropyl-methanesulfonamide] | ≤ 1000 | ≦100 μl/min/mg
